27 compounds from patent publication US10173991B2, “Sulfone amide linked benzothiazole inhibitors of endothelial lipase” (BRISTOL-MYERS SQUIBB COMPANY, priority 2014, dated 2019) can be followed below.

Each structure is given as a SMILES string.

The target of one assay is Endothelial lipase (EL) (Homo sapiens (Human), UniProt Q9Y5X9). Nature of the assay: Endothelial lipase (EL) enzymatic assay with fluorescent substrate A10070 in DMPG vesicles. In kind it is biochemical.
Sequence of Endothelial lipase (EL) (Q9Y5X9 21-500): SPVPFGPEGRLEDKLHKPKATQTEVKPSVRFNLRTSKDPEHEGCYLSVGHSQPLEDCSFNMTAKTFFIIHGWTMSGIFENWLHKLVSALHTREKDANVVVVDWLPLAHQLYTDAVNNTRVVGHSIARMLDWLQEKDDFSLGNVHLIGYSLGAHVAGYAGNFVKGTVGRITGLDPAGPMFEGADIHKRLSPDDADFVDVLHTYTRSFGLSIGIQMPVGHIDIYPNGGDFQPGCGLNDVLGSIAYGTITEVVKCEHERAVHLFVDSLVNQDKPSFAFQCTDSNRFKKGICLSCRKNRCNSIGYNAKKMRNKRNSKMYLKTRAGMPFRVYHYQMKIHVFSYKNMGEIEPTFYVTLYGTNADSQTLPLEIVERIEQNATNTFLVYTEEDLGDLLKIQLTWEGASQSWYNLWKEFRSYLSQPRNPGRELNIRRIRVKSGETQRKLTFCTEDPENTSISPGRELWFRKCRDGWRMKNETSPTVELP
Settings: not given
Put shortly:
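Substrate A10070 sits in sonicated DMPG vesicles at 0.11 mole fraction. Lipase and compound preincubated 30 min, 37° C, in HEPES pH 8.0 buffer with CaCl2.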
Consider `O=C(CNC(=O)C(c1nc2cc(-c3ccc(NC(=O)OCc4ccccc4)cc3)c(F)cc2s1)S(=O)(=O)CCC(F)(F)F)NC1CC1` (stereo not drawn) [Example 9, benzyl N-{4-[2-({[(cyclopropyl-carbamoyl)methyl]carbamoyl} (3,3,3-trifluoro-propanesulfonyl)methyl)-6-fluoro-1,3-benzothiazol-5-yl]phenyl} carbamate], for which the IC50 (in general, the concentration that inhibits the measured activity by half) turned out to be 1 nM.

As to `O=C(CNC(=O)C(c1nc2cc(F)c(-c3ccc(NC(=O)OCc4nccs4)cc3)cc2s1)S(=O)(=O)CCC(F)(F)F)NC1CC1` (stereo not drawn) [Example 523, 1,3-thiazol-2-ylmethyl N-{4-[2-({[(cyclopropyl-carbamoyl)methyl]carbamoyl}(3,3,3-trifluoropropane-sulfonyl)methyl)-5-fluoro-1,3-benzothiazol-6-yl]phenyl} carbamate], the IC50 is 6 nM.

`COc1ccc(OCCCS(=O)(=O)C(C(=O)NCC(=O)NC2CC2)c2nc3ccc(-c4ccc(F)nc4)cc3s2)cc1` (stereo not drawn) [Example 19, N-[(cyclopropyl-carbamoyl)methyl]-2-[6-(6-fluoropyridin-3-yl)-1,3-benzothiazol-2-yl]-2-[3-(4-methoxyphenoxy)propanesulfonyl] acetamide] yielded an IC50 of 7 nM.

`COCCS(=O)(=O)C(C(=O)NCC(=O)NC1CC1)c1nc2c(F)cc(-c3cnc(OC)c(F)c3)cc2s1` (stereo not drawn) [Example 206, N-[(cyclopropyl-carbamoyl)methyl]-2-[4-fluoro-6-(5-fluoro-6-methoxypyridin-3-yl)-1,3-benzothiazol-2-yl]-2-(2-methoxyethane-sulfonyl) acetamide]: half-maximal inhibition (IC50) required 9 nM.

In turn, `COCCS(=O)(=O)C(C(=O)NCC(=O)NC1CC1)c1nc2ccc(-c3ccc(Cl)cn3)cc2s1` (stereo not drawn) [Example 303, 2-[6-(5-chloropyridin-2-yl)-1,3-benzothiazol-2-yl]-N-[(cyclopropyl-carbamoyl)methyl]-2-(2-methoxyethane-sulfonyl)acetamide] came in with a concentration for half-maximal inhibition (IC50) of 247 nM.

`CN(C)S(=O)(=O)C(C(=O)NCC(=O)NC1CC1)c1nc2c(F)cc(-c3cnc(-c4ccccc4)nc3)cc2s1` (stereo not drawn) [Example 500, N-[(cyclopropyl-carbamoyl)methyl]-2-(dimethyl-sulfamoyl)-2-[4-fluoro-6-(2-phenylpyrimidin-5-yl)-1,3-benzothiazol-2-yl]acetamide] returned an IC50 of 8 nM.

In the case of `COC(=O)N(C)c1cccc(-c2cc3sc(C(C(=O)NCC(=O)NC4CC4)S(C)(=O)=O)nc3cc2F)c1` (stereo not drawn) [Example 547, methyl N-{3-[2-({[(cyclopropyl-carbamoyl)methyl]carbamoyl} (methanesulfonyl)methyl)-5-fluoro-1,3-benzothiazol-6-yl]phenyl}-N-methylcarbamate], half-maximal inhibition (IC50) was put at 8 nM.

`CC(C)n1cc(-c2cc3sc(C(C(=O)NCC(=O)NC4CC4)S(C)(=O)=O)nc3cc2OC(F)F)ccc1=O` (stereo not drawn) [Example 606] registered a 50% inhibitory concentration (IC50) of 4 nM.

`Cn1ccc(-c2ccc3sc(C(C(=O)NCC(=O)NC4CC4)S(=O)(=O)c4ccccc4)nc3c2)cc1=O` (stereo not drawn) [Example 439, 2-(benzenesulfonyl)-N-[(cyclopropyl-carbamoyl)methyl]-2-[5-(1-methyl-2-oxo-1,2-dihydropyridin-4-yl)-1,3-benzothiazol-2-yl]acetamide]: the 50% inhibitory concentration (IC50) amounted to 48 nM.

For the compound `CC(C)OCCNC(=O)CNC(=O)C(c1nc2cc(F)cc(-c3ccc(F)nc3)c2s1)S(=O)(=O)c1ccc(F)cc1` (stereo not drawn) [Example 465, 2-[5-fluoro-7-(6-fluoropyridin-3-yl)-1,3-benzothiazol-2-yl]-2-(4-fluorobenzene-sulfonyl)-N-({[2-(propan-2-yloxy)ethyl]carbamoyl}methyl)acetamide], the 50% inhibitory concentration (IC50) is 53 nM.

Consider `O=C(CNC(=O)C(c1nc2ccc(-c3ccc(F)nc3)cc2s1)S(=O)(=O)Cc1ccc(F)cc1)NC1CC1` (stereo not drawn) [Example 515, N-[(cyclopropyl-carbamoyl)methyl]-2-[(4-fluorophenyl)methanesulfonyl]-2-[6-(6-fluoropyridin-3-yl)-1,3-benzothiazol-2-yl]acetamide], for which half-maximal inhibition (IC50) was put at 48 nM.

With `COCCNC(=O)c1ccc(-c2ccc3nc(C(C(=O)NCC(=O)NC4CC4)S(C)(=O)=O)sc3c2)cc1OC` (stereo not drawn) [Example 410, 4-[2-({[(cyclopropyl-carbamoyl)methyl]carbamoyl} (methanesulfonyl)methyl)-1,3-benzothiazol-6-yl]-2-methoxy-N-(2-methoxyethyl) benzamide], it took 53 nM to reach half-maximal inhibition (IC50).

`COCCS(=O)(=O)C(C(=O)NCC(=O)NC1CC1)c1nc2cc(F)c(-c3ccc4c(c3)C(=O)NC4)cc2s1` (stereo not drawn) [Example 154, N-[(cyclopropyl-carbamoyl)methyl]-2-[5-fluoro-6-(3-oxo-2,3-dihydro-1H-isoindol-5-yl)-1,3-benzothiazol-2-yl]-2-(2-methoxyethane-sulfonyl) acetamide] gave a concentration for half-maximal inhibition (IC50) of 5 nM.

`O=C(CNC(=O)C(c1nc2ccc(-c3cncnc3)cc2s1)S(=O)(=O)Cc1ccc(F)cc1)NC1CC1` (stereo not drawn) [Example 517, N-[(cyclopropyl-carbamoyl)methyl]-2-[(4-fluorophenyl)methanesulfonyl]-2-[6-(pyrimidin-5-yl)-1,3-benzothiazol-2-yl]acetamide] displayed a 50% inhibitory concentration (IC50) of 117 nM.

As to `COCCS(=O)(=O)C(C(=O)NCC(=O)NC1CC1)c1nc2cc(OC)c(-c3cccnc3F)cc2s1` (stereo not drawn) [Example 219, N-[(cyclopropyl-carbamoyl)methyl]-2-[6-(2-fluoropyridin-3-yl)-5-methoxy-1,3-benzothiazol-2-yl]-2-(2-methoxyethane-sulfonyl) acetamide], the IC50 was 39 nM.

Consider `CC(C)S(=O)(=O)C(C(=O)NCC(=O)NC1CC1)c1nc2cc(-c3ccc4c(=O)n(C)ccc4c3)c(F)cc2s1` (stereo not drawn) [Example 267, N-[(cyclopropyl-carbamoyl)methyl]-2-[6-fluoro-5-(2-methyl-1-oxo-1,2-dihydro-isoquinolin-6-yl)-1,3-benzothiazol-2-yl]-2-(propane-2-sulfonyl) acetamide], for which the IC50 came out at 5 nM.

In turn, `COC(=O)Nc1ccc(-c2ccc3nc(C(C(=O)NCC(=O)NC4CC4)S(=O)(=O)CCC(F)(F)F)sc3c2)c(C)c1` (stereo not drawn) [Example 26] gave a half-maximal inhibitory concentration (IC50) of 7 nM.

Consider `COC(=O)Nc1ccc(-c2cc3sc(C(C(=O)NCC(=O)NC4CC4)S(C)(=O)=O)nc3cc2F)c(C)c1` (stereo not drawn) [Example 34, methyl N-{4-[2-({[(cyclopropyl-carbamoyl)methyl]carbamoyl} (methanesulfonyl)methyl)-5-fluoro-1,3-benzothiazol-6-yl]-3-methylphenyl} carbamate], for which inhibition was half-maximal at 4 nM (IC50).

For the compound `COCCS(=O)(=O)C(C(=O)NCC(=O)NC1CC1)c1nc2cc(-c3ccccc3)ccc2s1` (stereo not drawn) [Example 339, N-[(cyclopropyl-carbamoyl)methyl]-2-(2-methoxyethane-sulfonyl)-2-(5-phenyl-1,3-benzothiazol-2-yl)acetamide], the IC50 turned out to be 215 nM.

`COCCS(=O)(=O)C(C(=O)NCC(=O)NC1(C)CCC1)c1nc2cc(-c3ccc(F)nc3)ccc2s1` (stereo not drawn) [Example 387, 2-[5-(6-fluoropyridin-3-yl)-1,3-benzothiazol-2-yl]-2-(2-methoxyethane-sulfonyl)-N-{[(1-methylcyclobutyl)carbamoyl]methyl} acetamide] yielded a half-inhibitory concentration (IC50) of 28 nM.

For `COCCOC(=O)Nc1ccc(-c2cc3sc(C(C(=O)NCC(=O)NC4CC4)S(=O)(=O)CCC(F)(F)F)nc3cc2F)cc1` (stereo not drawn) [Example 534, 2-methoxyethyl N-{4-[2-({[(cyclopropyl-carbamoyl)methyl]carbamoyl}(3,3,3-trifluoropropane-sulfonyl)methyl)-5-fluoro-1,3-benzothiazol-6-yl]phenyl} carbamate], the IC50 is 2 nM.

`COCCS(=O)(=O)C(C(=O)NCC(=O)NC1CC1)c1nc2ccc(-c3ccc(C(=O)N4CCO[C@@H](C)C4)cc3)cc2s1` (stereo partly drawn) [Example 562, N-[(cyclopropyl-carbamoyl)methyl]-2-(2-methoxyethane-sulfonyl)-2-(6-{4-[(2S)-2-methyl-morpholine-4-carbonyl]phenyl}-1,3-benzothiazol-2-yl)acetamide] had an IC50 of 11 nM.

`COCCS(=O)(=O)C(C(=O)NCC(=O)NC1CC1)c1nc2ccc(-c3ccnc(OC)c3F)cc2s1` (stereo not drawn) [Example 343, N-[(cyclopropyl-carbamoyl)methyl]-2-[6-(3-fluoro-2-methoxypyridin-4-yl)-1,3-benzothiazol-2-yl]-2-(2-methoxyethane-sulfonyl)acetamide] displayed a 50% inhibitory concentration (IC50) of 48 nM.

On to `COCCS(=O)(=O)C(C(=O)NCC(=O)NC1CC1)c1nc2cc(F)c(-c3ccc(NC(=O)OCC(F)(F)F)cc3)cc2s1` (stereo not drawn) [Example 526, 2,2,2-trifluoroethyl N-{4-[2-({[(cyclopropyl-carbamoyl)methyl]carbamoyl}(2-methoxyethane-sulfonyl)methyl)-5-fluoro-1,3-benzothiazol-6-yl]phenyl} carbamate], for which the midpoint of inhibition, the IC50, lay at 1 nM.

`Cc1cc(-c2cc3sc(C(C(=O)NCC(=O)NC4CC4)S(=O)(=O)C(C)C)nc3cc2F)ccn1` (stereo not drawn) [Example 245, N-[(cyclopropyl-carbamoyl)methyl]-2-[5-fluoro-6-(2-methylpyridin-4-yl)-1,3-benzothiazol-2-yl]-2-(propane-2-sulfonyl)acetamide] displayed a half-maximal inhibitory concentration (IC50) of 12 nM.

For `O=C(CNC(=O)C(c1nc2cc(F)c(-c3cccc(-n4cccn4)c3)cc2s1)S(=O)(=O)CCC(F)(F)F)NC1CC1` (stereo not drawn) [Example 137, N-[(cyclopropyl-carbamoyl)methyl]-2-{5-fluoro-6-[3-(1H-pyrazol-1-yl)phenyl]-1,3-benzothiazol-2-yl}-2-(3,3,3-trifluoropropane-sulfonyl) acetamide], the half-maximal inhibitory concentration (IC50) was found to be 1 nM.

The same assay, now with this note: EL from conditioned media of HT-1080 cells; 30 min preincubation at 37° C.
`COCCNC(=O)c1ccc(-c2ccc3nc(C(C(=O)NCC(=O)NC4CC4)S(=O)(=O)N4CCOCC4)sc3c2)cc1` (stereo not drawn) [Example 480, 4-[2-({[(Cyclopropylcarbamoyl)methyl]carbamoyl}(morpholine-4-sulfonyl)methyl)-1,3-benzothiazol-6-yl]-N-(2-methoxyethyl)benzamide] returned an IC50 of 4 nM.
